One assay concerns VEGFR (Flk-1/KDR). Description: VEGF-stimulated Flk-1 tyrosine phosphorylation in Flk-1/NIH 3T3 cells. The class given is cell-based, human. How it is done:
(§1) Inhibition of growth factor-dependent receptor tyrosine phosphorylation by GFBs. Starved Flk-1/KDR-overexpressing NIH 3T3 cells (Flk-1/NIH 3T3) or NIH 3T3 cells were pretreated with GFBs for 5 min before stimulation with VEGF (50 ng/ml) or PDGF-BB (10 ng/ml) for 10 min, respectively. The cells were then harvested and lysed, and proteins from the lysates were separated by SDS-PAGE and transferred to nitrocellulose. Membranes then were either immunoblotted with anti-phospho-VEGFR2 antibody (Cell Signaling Technologies, Beverly, Mass.) for activated Flk-1 or anti-phospho-tyrosine antibody (4G10, Upstate Biotechnology, Lake Placid, N.Y.) for activated PDGFR. Phosphotyrosine Flk-1 and PDGFR were quantified using a Bio-Rad Model GS-700 Imaging Densitometer (Bio-Rad Laboratories, Inc, Hercules, Calif.) (Blaskovich, M. A. et al. Nat Biotechnol, 2000, 18:1065-70).

The subject of assay [1] is A-549 xenografts. Description: CD31 IHC microvessel count in A-549 xenograft tumors. Conditions: 5 mg/Kg, tumors processed two hours after last i.p. injection. In kind it is in vivo, nude mice. How it is done:
FIGS. 7A-7B illustrates CD31 IHC staining as described under Materials and Methods for tumors processed two hours after the last i.p. injection for a control (FIG. 7A) and GFB204 (FIG. 7B). Quantification of microvessels density (400×) was determined as described under Materials and Methods. SE, standard error. FIGS. 7A and 7B Microvessel Count; FIG. 7A=11.3±1.9; FIG. 7B=2.6±0.9.
IHC study. On the termination day of antitumor experiments, the tumors were extracted and fixed in 10% neutral buffered formalin for 6 hours. After fixation, the tissue samples were processed into paraffin blocks. Tissue sections (4 μm thick) were obtained from the parablocks and stained with hematoxylin and eosin (H&E) using standard histological techniques. Tissue sections were also subjected to immunostaining for CD31 (BD Biosciences, San Diego, Calif.) using the avidin biotin peroxidase complex technique (Blaskovich, M. A. et al. Nat Biotechnol, 2000, 18:1065-70). Mouse monoclonal antibody was used at 1:50 dilution, following microwave antigen retrieval (four cycles of 5 minutes each on high in 0.1M citrate buffer).

Assay [2] concerns A-549 xenografts. Description: Antitumor activity in the nude mouse A-549 tumor xenograft model. In kind it is in vivo, nude mice. Conditions: for average tumor size: 3 weeks. As for the experimental part:
FIG. 6 illustrates that GFB204 inhibits A-549 xenografts growth in nude mice (FIG. 6). A-549 cells were implanted into the flanks of nude mice and when the tumors reached an average size of about 100 mm^3, the mice were randomized and treated either with vehicle (♦) or GFB204 at 1 mg/kg (▪) and 5 mg/kg (●), and tumor sizes measured as described under Materials and Methods. Tumors were processed two hours after the last i.p. injection for CD31 IHC staining as described under Materials and Methods.
Antitumor activity in the nude mouse tumor xenograft model. Nude mice (Charles River, Wilmington, Mass.) were maintained in accordance with the Institutional Animal Care and Use Committee (IACUC) procedures and guidelines. A-549 cells were harvested and resuspended in PBS, then injected s.c. into the right and left flanks (10×10^6 cells per flank) of 8 week old female nude mice as reported previously (Sun, J. et al. Cancer Res, 1999, 59:4919-26). When tumors reached about 100 mm^3, animals were dosed i.p. with 0.2 ml solution once daily. Control animals received a vehicle whereas treated animals were injected with GFB204 (1 or 5 mg/kg/day). The tumor volumes were determined by measuring the length (l) and the width (w) and calculating the volume (V=lw^2/2) as described previously (Sun, J. et al. Cancer Res, 1999, 59:4919-26). Statistical significance between control and treated animals were evaluated using Student's t-test.

The target in another assay is PDGF (Homo sapiens, UniProt P01127). Put plainly: Tryptophan fluorescence titration of PDGF. The class given is binding. Conditions: emission at 334 nm. As for the experimental part: FIGS. 2D and 2E illustrate that GFB-204 binds PDGF and VEGF as indicated by growth factor tryptophan when increased amounts of GFB204 were added to PDGF and VEGF, respectively. The fluorescence was monitored by excitation at 295 nm and 228 nm, respectively, and emission at 334 nm.
PDGF, sequence (P01127 82-190 limits assumed): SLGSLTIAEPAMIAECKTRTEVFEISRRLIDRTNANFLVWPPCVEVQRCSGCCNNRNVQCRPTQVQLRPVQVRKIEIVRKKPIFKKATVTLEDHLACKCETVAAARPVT
Both VEGF and PDGF contain tryptophans that fluoresce at […] when excited at […].

Assay [3] deals with PDGFR. Put plainly: 125I-PDGF binding to its receptor on NIH 3T3 cells. More on the design: species or system mouse. The following applies: 4° C., 0.5 hours, read-out: IC50 inhibition of [I-125]PDGF binding to its receptor. As for the experimental part: Flk-1/NIH 3T3, NIH 3T3 and EGFR/NIH 3T3 cells were incubated with ^125I-VEGF, ^125I-PDGF and ^125I-EGF (50,000 cpm/well) respectively, along with increasing concentrations of GFB204. Cells were incubated at 4° C. for 0.5 hours, then washed three times with PBS and three times with lysis buffer prior to determining ^125I counts as described under Materials and Methods. An excess of cold VEGF, PDGF, and EGF was used to obtain non-specific binding levels. FIGS. 2A-2C show specific binding (% control) for PDGFR, Flk-1, and EGFR, respectively.
Binding of ^125I-growth factors to their receptors. The binding assay of ^125I-VEGF, ^125I-PDGF and ^125I-EGF to their respective receptors was carried out as described previously (Blaskovich, M. A. et al. Nat Biotechnol, 2000, 18:1065-70. Briefly, Flk-1/NIH 3T3 cells, NIH 3T3 cells and EGFR/NIH 3T3 cells were incubated with ^125I-VEGF, ^125I-PDGF and ^125I-EGF (50,000 cpm/well), respectively, and increasing concentrations of GFB204. Cells were incubated at 4° C. for 0.5 hours, then washed three times with PBS and three times with 25 mM Tris, pH 8.0, 1% Triton-X-100, 10% glycerol, and 1% SDS prior to determining ^125I counts on a gamma counter (Beckmann Inc.). An excess of cold growth factors were used to obtain nonspecific binding levels.

Assay [4] has as its system PDGFR. Description: PDGF-stimulated PDGFR tyrosine phosphorylation in NIH 3T3 cells. In kind it is cell-based, mouse. The following applies: NIH 3T3 cells; read-out: IC50 PDGFR tyrosine phosphorylation (PDGF). As for the experimental part: as §1

Several values for one entry are separate records, joined by “and”; a condition that tells them apart may be missing. Equal entries are not always repeated. Where two headings read alike, the source gives them in different places.

In the case of `CCCCOc1c2cc(C(=O)Nc3cc(C(=O)O)cc(C(=O)OCc4ccccc4)c3)cc1Cc1cc(C(=O)Nc3cc(C(=O)O)cc(C(=O)OCc4ccccc4)c3)cc(c1OCCCC)Cc1cc(C(=O)Nc3cc(C(=O)O)cc(C(=O)OCc4ccccc4)c3)cc(c1OCCCC)Cc1cc(C(=O)Nc3cc(C(=O)O)cc(C(=O)OCc4ccccc4)c3)cc(c1OCCCC)C2` [GFB204], the IC50 (commonly the point on the concentration scale where inhibition reaches its midpoint) with VEGFR (Flk-1/KDR) (VEGF 50 ng/ml stimulated Flk-1 tyrosine phosphorylation, read-out: IC50 (μM) VEGFR) was 0.48 ± 0.31 µM; with VEGFR (Flk-1/KDR) (read-out: IC50 VEGFR tyrosine phosphorylation (VEGF)) it was 0.48 µM; in the assay with PDGFR [3], 154 nM and 200 to 500 nM; with PDGFR [4], 190 nM. In the assay on A-549 xenografts [1], the “microvessels per field (400×), CD31 staining” value stood at 2.6±0.9. Further, the average tumor size in the assay with A-549 xenografts [2] (1 mg/kg i.p. once daily) was 650±114 mm^3; in the assay on A-549 xenografts [2] (5 mg/kg i.p. once daily), 284±108 mm^3. Besides, the tumor growth inhibition with A-549 xenografts [2] (1 mg/kg, not statistically significant) was 15%; in the assay on A-549 xenografts [2] (5 mg/kg, statistically significant (p<0.05)) it was 73%. At PDGF, the “binding to PDGF by tryptophan fluorescence titration” value is “binds both PDGF and VEGF”.

Values taken from US7718700B2, “Growth factor-binding compounds and methods of use” (Yale University, priority 2004, dated 2010).
